Values quoted from earlier work as cited in US20220265833A1, “ASPARTIC PROTEASE-TRIGGERED ANTIFUNGAL HYDROGELS” (priority 2017, published 2022).
Square brackets hold non-standard residues; d marks the D form. Ends that are not written are not given here. Phe(4-NO2) = N[C@@H](Cc1ccc([N+](=O)[O-])cc1)C(=O)O

Test system: Saps

Substance | rank of peptide-Sap catalytic efficiency
LAF(p-NO2)FGAPK (LA[Phe(4-NO2)]FGAPK) [LFFK.AG] | In order of decreasing catalytic efficiencies, these peptides were: LFFK.AG, LFFK.A2, and LFFK
LAF(p-NO2)FLAPK (LA[Phe(4-NO2)]FLAPK) [LFFK.A2] | In order of decreasing catalytic efficiencies, these peptides were: LFFK.AG, LFFK.A2, and LFFK
LRF(p-NO2)↓FLAPK (LR[Phe(4-NO2)]FLAPK) [LFFK] | In order of decreasing catalytic efficiencies, these peptides were: LFFK.AG, LFFK.A2, and LFFK
